This note sets out measurements from ChEMBL document CHEMBL6178002, “Identification of a RANKL/TNF-α Dual-Inhibitor as a Potential Disease-Modifying Agent for the Treatment of Knee Osteoarthritis” (J Med Chem, 2025).

The structures appear in SMILES notation. Activity calls are given as the source filed them.

Data set [1] can be described thus: Cytotoxicity against bone marrow macrophage cells (unknown origin) assessed as cell viability at 10 uM incubated for 24 hrs by CCK8 assay relative to control. The class given is toxicity, cell-based. Conditions: read-out: Activity. (In general: Tetrazolium dyes change colour on reduction, which living cells bring about.)
The test system of data set [2] is Bone marrow cell. Kind of data set: Inhibition of RANKL/M-CSF-induced osteoclastogenesis in male C57/BL6 mouse bone marrow cells at 1 uM by TRAP staining based analysis. The class given is functional. To be noted: time 1-7 day.
Data set [3] concerns Bone marrow macrophage. Kind of data set: Inhibition of RANKL/M-CSF-induced osteoclastogenesis in bone marrow macrophage cells (unknown origin) assessed as decrease in c-Fos mRNA level at 1 uM by RT-qPCR analysis. The format is functional, cell-based. Conditions: time <= 5.0 day. (Quantitative PCR measures a nucleic acid by following its amplification.)
Data set [4] concerns Bone marrow macrophage. Description: Inhibition of RANKL/M-CSF-induced osteoclastogenesis in bone marrow macrophage cells (unknown origin) assessed as decrease in cathepsin K mRNA level at 1 uM by RT-qPCR analysis. The class given is functional, cell-based. To be noted: time <= 5.0 day.
Data set [5] deals with Bone marrow macrophage. Description: Inhibition of RANKL/M-CSF-induced osteoclastogenesis in bone marrow macrophage cells (unknown origin) assessed as decrease in NFATC1 level incubated for 48 hrs by Western blot analysis. Conditions: dose <= 2.5 µM. The class given is functional, cell-based. (Immunoblotting shows a protein as a band on a membrane.)
The test system of data set [6] is Bone marrow macrophage. Description: Inhibition of RANKL/M-CSF-induced osteoclastogenesis in bone marrow macrophage cells (unknown origin) assessed as decrease in TRAP level incubated for 48 hrs by Western blot analysis. The format is functional, cell-based. Conditions: dose <= 2.5 µM.
Data set [7] has as its system Bone marrow macrophage. Kind of data set: Inhibition of RANKL/M-CSF-induced osteoclastogenesis in bone marrow macrophage cells (unknown origin) assessed as decrease in cathepsin K level incubated for 48 hrs by Western blot analysis. The format is functional, cell-based. Conditions: dose <= 2.5 µM.
The test system of data set [8] is Bone marrow macrophage. Description: Inhibition of RANKL/M-CSF-induced osteoclastogenesis in bone marrow macrophage cells (unknown origin) assessed as decrease in NFATC1 level at 1 uM by Western blot analysis. The format is functional, cell-based. To be noted: time <= 5.0 day.
Data set [9] has as its system Bone marrow macrophage. Kind of data set: Inhibition of RANKL/M-CSF-induced osteoclastogenesis in bone marrow macrophage cells (unknown origin) assessed as decrease in TRAP level at 1 uM by Western blot analysis. To be noted: time <= 5.0 day. The format is functional, cell-based.
Data set [10] relates to RAW264.7. Description: Anti-inflammatory activity in LPS-stimulated mouse RAW264.7 cells assessed as decrease in TNF-alpha level at 10 uM preincubated for 24 hrs followed by LPS addition measured after 2 hrs by RT-qPCR analysis. The format is functional, cell-based. Conditions: time 26.0 hrs.
The test system of data set [11] is RAW264.7. Kind of data set: Anti-inflammatory activity in LPS-stimulated mouse RAW264.7 cells assessed as decrease in IL-1beta level at 10 uM preincubated for 24 hrs followed by LPS addition measured after 2 hrs by RT-qPCR analysis. Conditions: time 26.0 hrs. The class given is functional, cell-based.
Data set [12] relates to RAW264.7. Description: Anti-inflammatory activity in LPS-stimulated mouse RAW264.7 cells assessed as decrease in IL-6 level at 10 uM preincubated for 24 hrs followed by LPS addition measured after 2 hrs by RT-qPCR analysis. To be noted: time 26.0 hrs. The class given is functional, cell-based.
In data set [13] the test system is RAW264.7. Description: Inhibition of NFkappaB activation in mouse RAW264.7 cells assessed as reduction in TNF-alpha-induced NF-kappaB p65 phosphorylation at 1 to 10 uM preincubated for 12 hrs followed by LPS/TNF-alpha addition measured after 2 hrs by Western blot analysis. The class given is cell-based. Conditions: dose 1-10 µM, time 14.0 hrs.
Data set [14] concerns Primary chondrocyte. Kind of data set: Anti-inflammatory activity in IL-1beta-treated C57/BL6 mouse primary chondrocytes assessed as increase in collagen II mRNA level at 10 uM incubated for 24 hrs by RT-qPCR analysis. The class given is functional, cell-based.
Data set [15] can be described thus: Cmax in male Sprague-Dawley rat at 1 mg/kg, iv measured for 0.25 to 24 hrs. To be noted: in vivo, time 0.25-24 hrs. The format is ADME, organism-based.
Data set [16] in a line: AUC (0 to t) in male Sprague-Dawley rat at 1 mg/kg, iv measured for 0.25 to 24 hrs. The format is ADME, organism-based. To be noted: in vivo, time 0.25-24 hrs.
Data set [17] in a line: Half life in male Sprague-Dawley rat at 1 mg/kg, iv measured for 0.25 to 24 hrs. The class given is ADME, organism-based. To be noted: in vivo, time 0.25-24 hrs.
The nature of data set [18]: Volume of distribution at steady state in male Sprague-Dawley rat at 1 mg/kg, iv measured for 0.25 to 24 hrs. The format is ADME, organism-based. Conditions: in vivo, time 0.25-24 hrs, read-out: Vdss.
Data set [19] can be described thus: Cmax in male Sprague-Dawley rat at 10 mg/kg, po measured for 0.25 to 24 hrs. The format is ADME, organism-based. Conditions: in vivo, time 0.25-24 hrs.
The species named for data set [20] is Rattus norvegicus. Description: Anti-inflammatory activity in male Sprague-Dawley rat model of ACLT-induced osteoarthritis assessed as reduction in articular cartilage erosion at 50 to 100 ug, IART treated weekly once for 8 weeks by H and E/S-O/FG staining based analysis. The class given is functional, organism-based. Conditions: dose 50-100 µg.
For data set [21], the species on record is Rattus norvegicus. Kind of data set: Anti-inflammatory activity in male Sprague-Dawley rat model of ACLT-induced osteoarthritis assessed as reduction in OARSI score at 50 to 100 ug, IART treated weekly once for 8 weeks. The format is functional, organism-based. To be noted: dose 50-100 µg.
The species entered for data set [22] is Rattus norvegicus. Kind of data set: Anti-inflammatory activity in male Sprague-Dawley rat model of ACLT-induced osteoarthritis assessed as reduction in OA-induced pain at 50 to 100 ug, IART treated weekly once for 8 weeks by hot-plate test. The class given is functional, organism-based. To be noted: dose 50-100 µg.
For data set [23], the species on record is Rattus norvegicus. Description: Anti-inflammatory activity in male Sprague-Dawley rat model of ACLT-induced osteoarthritis assessed as increase in Tb.N level at 50 to 100 ug, IART treated weekly once for 8 weeks by micro-CT analysis. The class given is functional, organism-based. Conditions: dose 50-100 µg.

As usually defined, the Cmax is the highest concentration seen after dosing. As a reminder, the AUC(0-t) is exposure summed from dosing to a finite time, without extrapolation to infinity. A lower AUC(0-t) goes with low exposure. The term half-life denotes the time needed for the level to fall by half in the phase considered. A higher half-life goes with slow loss. Consider `Cc1cccc(C)c1NC(=O)[C@@H]1Cc2c([nH]c3ccccc23)C2(CN(c3ccccc3)C2)N1`, for which the viability at 24 h, 10 µM in data set [1] is 110%. The inhibition result in data set [2] is “Time-dependent-effect”; in data set [3] it was “Time-dependent-effect”; in data set [4], “Time-dependent-effect”; in [5], “Dose-dependent-effect”; in data set [6], “Dose-dependent-effect”; in data set [7], “Dose-dependent-effect”. In addition, the inhibition result in data set [8] and in [9] was “Time-dependent-effect” throughout. Further, the result in data set [10], in [11], in [12], in [14], in [20] and in data set [21] was Active. In addition, the result in [22] and in data set [23] was Active. The inhibition result in data set [13] is “Active”. Further, the values for the Cmax in data set [15] and in data set [19] were 338 ng/mL and 780 ng/mL, respectively. Besides, in [16], the AUC(0-t) worked out at 227 ng·h/mL. The same molecule showed a half-life in [17] of 1.27 h. Moreover, the Vd in data set [18] stood at 4.91 L/kg.
